In PubChem BioAssay AID1745844 (Carcinogenic Potency Database (CPDB), 2022) one finds TD50 and carcinogen call data, which are given here for six compounds.

The data set has as its system rodent lifetime carcinogenesis bioassay, tumor incidence TD50. Description: chronic cancer bioassays in animals – CPDB, compiled studies (AID 1745844).

Active and inactive are the calls of the source. The rule behind the calls is not given here.

In the case of `CN=C(NC#N)NCCSCc1nc[nH]c1C`, the TD50 (mouse, strain C57BL/6, females, in drinking water, site: liver, lesion: several types, types named in the paper, dosed 126 weeks, study length 126 weeks) was 52200 mg/kg/day (inactive). Also, the carcinogen call was “negative (inactive)” (mouse, strain C57BL/6, females, in drinking water, site: lung, lesion: one or several types, types not named, dosed 126 weeks, study length 126 weeks); “negative (inactive)” (rat, strain Charles River CD (Sprague-Dawley), females, by gavage, site: gastric mucosa, lesion: carcinoid tumor, malignant, dosed 105 weeks, study length 105 weeks); “negative (inactive)” (rat, strain Charles River CD (Sprague-Dawley), males, by gavage, site: gastric mucosa, lesion: carcinoid tumor, malignant, dosed 105 weeks, study length 105 weeks).

For the compound `CCN=[N+](C)[O-]`, the TD50 is, setting by setting: (rat, strain Fischer 344, males, in drinking water, site: kidney, lesion: several types, types named in the paper, dosed 30 weeks, study length 95 weeks) 123 mg/kg/day; (rat, strain Fischer 344, males, in drinking water, site: liver, lesion: hemangiosarcoma, dosed 30 weeks, study length 95 weeks) 302 mg/kg/day; (rat, strain Fischer 344, males, in drinking water, site: liver, lesion: hepatocellular carcinoma, dosed 30 weeks, study length 95 weeks) 18.2 mg/kg/day; (rat, strain Fischer 344, males, in drinking water, site: liver, lesion: neoplastic nodule, dosed 30 weeks, study length 95 weeks) 664 mg/kg/day; (rat, strain Fischer 344, males, in drinking water, site: liver, lesion: several types, types named in the paper, dosed 30 weeks, study length 95 weeks) 11.5 mg/kg/day.

Regarding `CN1CCCC1=O`, the TD50 is, setting by setting: (mouse, strain B6C3F1, females, in feed, site: any site (literature study), lesion: benign tumor, dosed 78 weeks, study length 78 weeks) 3440 mg/kg/day; (mouse, strain B6C3F1, females, in feed, site: any site (literature study), lesion: malignant tumor, dosed 78 weeks, study length 78 weeks) 14900 mg/kg/day; (mouse, strain B6C3F1, females, in feed, site: liver, lesion: hepatocellular adenoma, dosed 78 weeks, study length 78 weeks) 3320 mg/kg/day; (mouse, strain B6C3F1, females, in feed, site: liver, lesion: hepatocellular carcinoma, dosed 78 weeks, study length 78 weeks) 7330 mg/kg/day; (mouse, strain B6C3F1, males, in feed, site: any site (literature study), lesion: benign tumor, dosed 78 weeks, study length 78 weeks) 1630 mg/kg/day; (mouse, strain B6C3F1, males, in feed, site: any site (literature study), lesion: malignant tumor, dosed 78 weeks, study length 78 weeks) 2270 mg/kg/day. Also, the TD50 was 1760 mg/kg/day (mouse, strain B6C3F1, males, in feed, site: liver, lesion: hepatocellular adenoma, dosed 78 weeks, study length 78 weeks); 1480 mg/kg/day (mouse, strain B6C3F1, males, in feed, site: liver, lesion: hepatocellular carcinoma, dosed 78 weeks, study length 78 weeks); 4080 mg/kg/day (mouse, strain B6C3F1, males, in feed, site: lung, lesion: adenoma, dosed 78 weeks, study length 78 weeks); 6060 mg/kg/day (inactive) (rat, strain Charles River CD (Sprague-Dawley), males, in feed, site: any site (literature study), lesion: several types, types named in the paper, dosed 104 weeks, study length 104 weeks); 58500 mg/kg/day (inactive) (rat, strain Charles River CD (Sprague-Dawley), males, in feed, site: liver, lesion: several types, types named in the paper, dosed 104 weeks, study length 104 weeks). Moreover, the carcinogen call runs as follows: (rat, strain Charles River CD (Sprague-Dawley), females, in feed, site: any site (literature study), lesion: several types, types named in the paper, dosed 104 weeks, study length 104 weeks) “negative (inactive)”; (rat, strain Charles River CD (Sprague-Dawley), females, in feed, site: liver, lesion: several types, types named in the paper, dosed 104 weeks, study length 104 weeks) “negative (inactive)”; (rat, strain Charles River CD (Sprague-Dawley), females, inhaled, site: liver, lesion: one or several types, types not named, dosed 104 weeks, study length 104 weeks) “negative (inactive)”; (rat, strain Charles River CD (Sprague-Dawley), males, inhaled, site: liver, lesion: one or several types, types not named, dosed 104 weeks, study length 104 weeks) “negative (inactive)”.

Consider `O=C(O)c1cccnc1`, for which the carcinogen call (mouse, strain Swiss albino, females, in drinking water, site: liver, lesion: several types, types named in the paper, dosed 139 weeks, study length 139 weeks) is “negative (inactive)”; the carcinogen call (mouse, strain Swiss albino, males, in drinking water, site: liver, lesion: several types, types named in the paper, dosed 119 weeks, study length 119 weeks) is “negative (inactive)”; the carcinogen call (mouse, strain Swiss albino, males, in drinking water, site: lung, lesion: one or several types, types not named, dosed 119 weeks, study length 119 weeks) was “negative (inactive)”. For the setting “mouse, strain Swiss albino, females, in drinking water, site: lung, lesion: one or several types, types not named, dosed 139 weeks, study length 139 weeks”, the TD50 is 17000 mg/kg/day (inactive).

As for `COC1=CC(=O)C[C@@H](C)[C@]12Oc1c(Cl)c(OC)cc(OC)c1C2=O`, the carcinogen call was “negative (inactive)” (hamster, strain Syrian Golden, females, in feed, site: liver, lesion: cholangiocarcinoma, dosed 97 weeks, study length 101 weeks); “negative (inactive)” (hamster, strain Syrian Golden, males, in feed, site: liver, lesion: one or several types, types not named, dosed 123 weeks, study length 127 weeks); “negative (inactive)” (mouse, strain Swiss, females, in feed, site: liver, lesion: hemangioma, dosed 115 weeks, study length 115 weeks); “negative (inactive)” (mouse, strain Swiss, females, in feed, site: lung, lesion: one or several types, types not named, dosed 115 weeks, study length 115 weeks); “negative (inactive)” (mouse, strain Swiss, males, in feed, site: liver, lesion: hemangioma, dosed 115 weeks, study length 115 weeks); “negative (inactive)” (mouse, strain Swiss, males, in feed, site: lung, lesion: one or several types, types not named, dosed 115 weeks, study length 115 weeks). Also, the TD50 was 13.8 mg/kg/day (mouse, strain Swiss albino, females, by gavage, site: mammary gland, lesion: infiltrating duct carcinoma, dosed 52 weeks, study length 52 weeks) and 1660 mg/kg/day (mouse, strain Swiss, males, in feed, site: liver, lesion: hepatoma, dosed 115 weeks, study length 115 weeks).

For the compound `O=C1c2ccccc2C(=O)N1SC(Cl)(Cl)Cl`, the carcinogen call is, setting by setting: (mouse, strain B6AKF1, females, oral dosing, site: any site (literature study), lesion: several types, types named in the paper, dosed 76 weeks, study length 76 weeks) “negative (inactive)”; (mouse, strain B6AKF1, females, oral dosing, site: liver, lesion: hepatoma, dosed 76 weeks, study length 76 weeks) “negative (inactive)”; (mouse, strain B6AKF1, females, oral dosing, site: lung, lesion: adenoma, dosed 76 weeks, study length 76 weeks) “negative (inactive)”; (mouse, strain B6AKF1, males, oral dosing, site: any site (literature study), lesion: several types, types named in the paper, dosed 76 weeks, study length 76 weeks) “negative (inactive)”; (mouse, strain B6AKF1, males, oral dosing, site: lung, lesion: adenoma, dosed 76 weeks, study length 76 weeks) “negative (inactive)”; (mouse, strain B6C3F1, females, oral dosing, site: liver, lesion: hepatoma, dosed 76 weeks, study length 76 weeks) “negative (inactive)”. In addition, the carcinogen call (mouse, strain B6C3F1, females, oral dosing, site: lung, lesion: several types, types named in the paper, dosed 76 weeks, study length 76 weeks) was “negative (inactive)”. Also, the TD50 reads like this: (mouse, strain B6AKF1, males, oral dosing, site: liver, lesion: hepatoma, dosed 76 weeks, study length 76 weeks) 8230 mg/kg/day (inactive); (mouse, strain B6C3F1, females, in feed, site: all sites, lesion: malignant lymphoma, dosed 104 weeks, study length 104 weeks) 2200 mg/kg/day; (mouse, strain B6C3F1, females, in feed, site: duodenum, lesion: adenocarcinoma, dosed 104 weeks, study length 104 weeks) 2090 mg/kg/day; (mouse, strain B6C3F1, females, in feed, site: duodenum, lesion: adenoma, dosed 104 weeks, study length 104 weeks) 29200 mg/kg/day; (mouse, strain B6C3F1, females, in feed, site: duodenum, lesion: several types, types named in the paper, dosed 104 weeks, study length 104 weeks) 1670 mg/kg/day; (mouse, strain B6C3F1, females, in feed, site: liver, lesion: several types, types named in the paper, dosed 104 weeks, study length 104 weeks) 18900 mg/kg/day. The TD50 reads like this: (mouse, strain B6C3F1, females, in feed, site: stomach, nonglandular, lesion: several types, types named in the paper, dosed 104 weeks, study length 104 weeks) 6000 mg/kg/day; (mouse, strain B6C3F1, females, in feed, site: stomach, nonglandular, lesion: squamous-cell papilloma, dosed 104 weeks, study length 104 weeks) 5780 mg/kg/day; (mouse, strain B6C3F1, females, oral dosing, site: any site (literature study), lesion: several types, types named in the paper, dosed 76 weeks, study length 76 weeks) 260 mg/kg/day (inactive); (mouse, strain B6C3F1, males, in feed, site: duodenum, lesion: adenocarcinoma, dosed 104 weeks, study length 104 weeks) 981 mg/kg/day; (mouse, strain B6C3F1, males, in feed, site: duodenum, lesion: adenoma, dosed 104 weeks, study length 104 weeks) 23000 mg/kg/day; (mouse, strain B6C3F1, males, in feed, site: duodenum, lesion: several types, types named in the paper, dosed 104 weeks, study length 104 weeks) 899 mg/kg/day. The TD50 (mouse, strain B6C3F1, males, in feed, site: stomach, nonglandular, lesion: several types, types named in the paper, dosed 104 weeks, study length 104 weeks) stood at 5460 mg/kg/day; the TD50 (mouse, strain B6C3F1, males, in feed, site: stomach, nonglandular, lesion: squamous-cell carcinoma, dosed 104 weeks, study length 104 weeks) stood at 13100 mg/kg/day; the TD50 (mouse, strain B6C3F1, males, in feed, site: stomach, nonglandular, lesion: squamous-cell papilloma, dosed 104 weeks, study length 104 weeks) stood at 12900 mg/kg/day; the TD50 (mouse, strain B6C3F1, males, oral dosing, site: any site (literature study), lesion: several types, types named in the paper, dosed 76 weeks, study length 76 weeks) is 87.7 mg/kg/day (inactive); the TD50 (mouse, strain B6C3F1, males, oral dosing, site: liver, lesion: hepatoma, dosed 76 weeks, study length 76 weeks) was 242 mg/kg/day (inactive); the TD50 (mouse, strain B6C3F1, males, oral dosing, site: lung, lesion: adenoma, dosed 76 weeks, study length 76 weeks) is 156 mg/kg/day (inactive). Besides, the TD50 (mouse, strain Charles River CD1, females, in feed, site: digestive tract, lesion: several types, types named in the paper, dosed 112 weeks, study length 112 weeks) was 2380 mg/kg/day; the TD50 (mouse, strain Charles River CD1, females, in feed, site: duodenum, lesion: adenocarcinoma, dosed 112 weeks, study length 112 weeks) is 3310 mg/kg/day; the TD50 (mouse, strain Charles River CD1, females, in feed, site: duodenum, lesion: adenoma, dosed 112 weeks, study length 112 weeks) was 7280 mg/kg/day; the TD50 (mouse, strain Charles River CD1, males, in feed, site: digestive tract, lesion: several types, types named in the paper, dosed 112 weeks, study length 112 weeks) is 2190 mg/kg/day; the TD50 (mouse, strain Charles River CD1, males, in feed, site: duodenum, lesion: adenocarcinoma, dosed 112 weeks, study length 112 weeks) is 2400 mg/kg/day; the TD50 (mouse, strain Charles River CD1, males, in feed, site: duodenum, lesion: adenoma, dosed 112 weeks, study length 112 weeks) was 10300 mg/kg/day. Further, the TD50 (mouse, strain Charles River CD1, males, in feed, site: stomach, nonglandular, lesion: papilloma, dosed 112 weeks, study length 112 weeks) is 13400 mg/kg/day; the TD50 (rat, strain Charles River CD (Sprague-Dawley), males, in feed, site: testis, lesion: interstitial-cell tumor, dosed 104 weeks, study length 104 weeks) turned out to be 839 mg/kg/day; the TD50 (rat, strain Charles River CD (Sprague-Dawley), males, in feed, site: thyroid gland, lesion: several types, types named in the paper, dosed 104 weeks, study length 104 weeks) amounted to 2940 mg/kg/day; the TD50 (rat, strain Fischer 344, females, in feed, site: all sites, lesion: malignant lymphoma, dosed 104 weeks, study length 104 weeks) was 947 mg/kg/day; the TD50 (rat, strain Fischer 344, males, in feed, site: all sites, lesion: malignant lymphoma, dosed 104 weeks, study length 104 weeks) is 1070 mg/kg/day.
